Here are results for two substances from patent US10087465B2, “Trans-acting elements for intracellular delivery of nucleic acid sequences” (The United States of America, as Represented by the …, priority 2014, dated 2018).

{F1} = fluorescein label

The subject of data set [1] is HEK 293, HeLa, HeLa pLuc705, MCF7 and SK—N—SH live cells. Description: Flow cytometry (FACS) analysis of cellular uptake of fluorescently-labeled PNA or PMO oligomers in live cells. The data set is classed as cell-based. As to the method:
Complex formation between PNA or PMO oligomers and dTtaPS or dAtaPS: Appropriate amounts of PNA or PMO oligomers were diluted in serum-free OptiMEM™ (20 μl). dTtaPS or dAtaPS was added to the oligomer solution to achieve a final concentration that is twice that of the oligomer. After 30 min incubation at 37° C., the PNA or PMO oligomer: dTtaPS or dAtaPS complexes were stored at 4° C. for 15 minutes or until used. Stock solutions (2×) of the complexes were made by adding OptiMEM™ to appropriate volumes.
Flow cytometry analysis of cellular uptake in live cells: The internalization of fluorescently-labeled PNA or PMO sequences (Table 1) in HEK 293, HeLa, MCF7 and SK—N—SH cells was assessed by flow cytometry. Cells were seeded in a 96-well plate (10^4 cells/well) and allowed to grow at 37° C. for 24 h in 10% FBS-MEM. The culture medium of each well was then replaced with fresh medium (100 μl) containing any of the fluorescently-labeled PNA or PMO sequences, the final concentration of which was 1 μM. After an incubation of 18 h at 37° C., the medium was removed from each well by suction and 0.25% Trypsin (50 μl) was added. Upon complete cell detachment, a solution (100 μl) of ice-cold 2% FBS in phosphate-buffered saline (PBS, pH 7.4) was added to each well. The cells were collected into tubes, to which was added 0.4% Trypan blue (50 μl) and 200 µM monensin (20 μl), and analyzed by fluorescence-activated cell sorting (FACS) using a BD FACScan™ flow cytometer. A total of 5000 events were counted and the results were reported as a percentage of the cells that have internalized the fluorescently-labeled oligomers.
Background: In flow cytometry, cells or beads pass a laser one at a time.

In another data set the test system is HeLa pLuc 705 cells. The data set is described as follows: Confocal microscopy analysis of dTtaPS-assisted internalization of PNA or PMO oligomers. The data set is classed as cell-based. The conditions noted are these: dTtaPS-assisted uptake; oligomer 1.0, dTtaPS 2.0 μM; 12 h at 37° C. As to the method:
Confocal microscopy analysis of dTtaPS-assisted internalization of PNA or PMO oligomers in HeLa pLuc 705 cells: HeLa pLuc 705 cells (5×10^4 cells/well) were seeded in 8-well chambered slides and cultured for 24 h at 37° C. in 10% FBS-MEM (200 μl). The culture medium of each well was then replaced with 20% FBS containing fresh medium (200 μl) and the fluoresceinated PNA or PMO oligomer:dTtaPS complex that was prepared as described above to provide an oligomer and dTtaPS final concentration of […] and 2.0 μM, respectively. After a 12 h incubation at 37° C., the medium was removed and a 0.4% Trypan Blue solution (200 μl) was added to quench the fluorescence stemming from extracellular fluoresceinated oligonucleotides. After a period of 5 minutes at ambient temperature, the cells were washed twice with PBS (pH 7.4, 200 μl) followed by the addition of fresh phenol red-free DMEM (200 μl) supplemented with 10% FBS. The intracellular distribution of fluorescence was determined without fixation using a Leica SP8 confocal microscope system and analysed using the Leica LASAF software. Hoechst 33342 was used, in accordance with the manufacturer's staining protocols, for the detection of nuclei. Images were acquired at a 63× magnification.

As to “PMO oligomer 18: commercial PMO, CCTCTTACCTCAGTTACA-AAAAAA-F1, SEQ ID NO. 12 (CCTCTTACCTCAGTTACAAAAAAA; all phosphorodiamidate morpholino (PMO), 3' {F1})”, the “PS-dT8[3+] (dTtaPS)-mediated delivery of fluoresceinated PMO oligomers” value in data set [1] (PMO oligomer 1 μM, PS-dT8[3+] 2 μM, all cell lines, FIG. 17, listed as 18) is given as “confirmed the dTtaPS-assisted delivery”. Besides, the “intracellular distribution of fluorescence” value with HeLa pLuc 705 cells was “endosomal sequestration of 18 and modest nuclear fluorescence”.

On to “PNA oligomer 7: commercial PNA, F1-CCTCTTACCTCAGTTACA-AAAAAA-NH2, SEQ ID NO. 1 (CCTCTTACCTCAGTTACAAAAAAA; all peptide nucleic acid (PNA), 5' {F1}; PNA with C-terminal amide, further chemistry not fully specified)”, for which, in data set [1] (dTtaPS-mediated uptake, FACS analysis), the “mean fluorescence intensity (MFI) after internalization, relative to that of PMO oligomer 18” value was around 10 fold. In data set [1] (in the presence of PS-dT8[3+], oligomer 1 μM, all cell lines under study, FIG. 11), the “PS-dT8[3+] (dTtaPS)-mediated cellular internalization of fluoresceinated PNA oligomers” value is recorded as “efficiently internalized”. The “intracellular distribution of fluorescence” value with HeLa pLuc 705 cells is on record as “endosomal sequestration of 7 is predominant”.
